Activity calls are given as the source filed them. The rule behind the calls is not given here.
What was measured:
[1] = test system: Human immunodeficiency virus; assay: microbe, parasite or virus in culture; conditions: Human immunodeficiency virus 1, MT4
Description: Antiviral activity against vesicular stomatitis virus G-pseudotyped Human immunodeficiency virus infected in human MT-4 cells assessed as inhibition of viral replication

[2] = test system: Human immunodeficiency virus 1; type: functional, organism-based; conditions: Human immunodeficiency virus 1, 3B, MT4
[3] = test system: Human immunodeficiency virus 1; assay: Antiviral activity against Human immunodeficiency virus 1 Ba-L infected in human PBMCs assessed as inhibition of viral replication; type: functional, organism-based
[4] = biological target: T1, Human immunodeficiency virus type 1 integrase (Human immunodeficiency virus 1, UniProt Q7ZJM1); assay: Displacement of 20 nM [3H]GSK304649 from Human immunodeficiency virus 1 integrase by scintillation proximity assay
[5] = test system: Human immunodeficiency virus 1; type: functional, organism-based; conditions: NL432, MT4
[6] = test system: Human immunodeficiency virus 1; type: functional, organism-based; conditions: NL432, MT4; remark: listed apart in the source
[7] = test system: Human immunodeficiency virus 1; type: functional, organism-based; conditions: NL432, MT4; remark: listed apart in the source
[8] = biological target: T1, Human immunodeficiency virus type 1 integrase; assay: Inhibition of Human immunodeficiency virus 1 integrase by strand transfer scintillation proximity assay
[9] = test system: Human immunodeficiency virus 1; assay: Antiviral activity against INI-resistant Human immunodeficiency virus 1 expressing integrase P145S mutant gene infected in human HeLa-CD4 cells after 3 days; type: functional
[10] = test system: Human immunodeficiency virus 1; assay: Antiviral activity against INI-resistant Human immunodeficiency virus 1 expressing integrase M154I mutant gene infected in human HeLa-CD4 cells after 3 days; type: functional
[11] = biological target: T1, Human immunodeficiency virus type 1 integrase; assay: Displacement of [3H]GSK304649 from Human immunodeficiency virus 1 integrase by scintillation proximity assay
[12] = test system: Human immunodeficiency virus 1; assay: Antiviral activity against INI-resistant Human immunodeficiency virus 1 expressing integrase S153Y mutant gene infected in human HeLa-CD4 cells after 3 days; type: functional
[13] = test system: Human immunodeficiency virus 1; assay: Antiviral activity against INI-resistant Human immunodeficiency virus 1 expressing integrase T66I mutant gene infected in human HeLa-CD4 cells after 3 days; type: functional
[14] = test system: Human immunodeficiency virus 1; assay: Antiviral activity against INI-resistant Human immunodeficiency virus 1 expressing integrase E92Q mutant gene infected in human HeLa-CD4 cells after 3 days; type: functional
[15] = test system: Human immunodeficiency virus 1; assay: Antiviral activity against RTI-resistant Human immunodeficiency virus 1; type: functional, organism-based
[16] = test system: Human immunodeficiency virus 1; assay: Antiviral activity against Human immunodeficiency virus 1 Ba-L infected in human PBMCs assessed as inhibition of viral replication in presence of human serum; type: functional, organism-based
[17] = test system: Human immunodeficiency virus 1; assay: Antiviral activity against INI-resistant Human immunodeficiency virus 1 expressing integrase Q146R mutant gene infected in human HeLa-CD4 cells after 3 days; type: functional
[18] = test system: Human immunodeficiency virus 1; assay: Antiviral activity against INI-resistant Human immunodeficiency virus 1 expressing integrase F121Y mutant gene infected in human HeLa-CD4 cells after 3 days; type: functional, organism-based
[19] = test system: Human immunodeficiency virus 1; assay: Antiviral activity against INI-resistant Human immunodeficiency virus 1 expressing integrase N155S mutant gene infected in human HeLa-CD4 cells after 3 days; type: functional, organism-based
[20] = test system: Human immunodeficiency virus 1; assay: Antiviral activity against PI-resistant Human immunodeficiency virus 1; type: functional, organism-based
[21] = test system: Human immunodeficiency virus 1; assay: Antiviral activity against INI-resistant Human immunodeficiency virus 1 expressing integrase T66K mutant gene infected in human HeLa-CD4 cells after 3 days; type: functional, organism-based
[22] = test system: Human immunodeficiency virus 1; assay: Antiviral activity against INI-resistant Human immunodeficiency virus 1 expressing integrase Q148R mutant gene infected in human HeLa-CD4 cells after 3 days; type: functional, organism-based
[23] = test system: Human immunodeficiency virus 1; assay: Antiviral activity against INI-resistant Human immunodeficiency virus 1 expressing integrase Q148K mutant gene infected in human HeLa-CD4 cells after 3 days; type: functional, organism-based
[24] = test system: Human immunodeficiency virus 1; assay: Antiviral activity against INI-resistant Human immunodeficiency virus 1 expressing integrase T124A mutant gene infected in human HeLa-CD4 cells after 3 days; type: functional

T1 sequence (Q7ZJM1 whole entry): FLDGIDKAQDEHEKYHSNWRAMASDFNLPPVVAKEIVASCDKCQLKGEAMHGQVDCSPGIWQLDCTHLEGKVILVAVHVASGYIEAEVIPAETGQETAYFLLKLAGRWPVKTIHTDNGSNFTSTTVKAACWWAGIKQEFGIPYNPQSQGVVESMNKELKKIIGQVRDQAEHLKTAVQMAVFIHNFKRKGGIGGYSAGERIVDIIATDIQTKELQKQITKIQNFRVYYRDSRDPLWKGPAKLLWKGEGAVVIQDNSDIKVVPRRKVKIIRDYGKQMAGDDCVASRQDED

Row | SMILES | EC50 [1] [nM] | EC50 [2] [nM] | EC50 [3] [nM] | IC50 [4] [nM] | Activity [5] | Activity [6] | Activity [7] | also measured
1 | COc1cc2c(cc1Cc1cccc(Cl)c1F)c(=O)c(C(=O)O)cn2[C@H](CO)C(C)C | 1 | 2 | 2 |  |  |  |  | 
2 | Cc1nnc(C(=O)NC(C)(C)c2nc(C(=O)NCc3ccc(F)cc3)c(O)c(=O)n2C)o1 | 2 | 1.8 | 2 |  |  |  |  | 
3 | O=C(NCc1ccc(F)cc1)c1nc(N2CCCCS2(=O)=O)c2cccnc2c1O | 2.2 | 11 | 3 | 13 | Dose-dependent effect | inactive | Dose-dependent effect | Kd [4]: 3.3 nM
4 | O=C1Nc2ccc(Cl)cc2[C@@](C#CC2CC2)(C(F)(F)F)O1 |  |  |  |  | Dose-dependent effect | inactive | Dose-dependent effect | 
5 | Cn1c(=O)c(C(=O)NCCO)c(O)c2ncc(Cc3ccc(F)cc3)cc21 [GSK-364735] | 1.7 | 5 | 2 | 11 | Dose-dependent effect | inactive | Dose-dependent effect | IC50 [8]: 7.8 nM; fold change (FC) [9]: 1.4; fold change (FC) [10]: 0.8; Kd [11]: 26 nM; fold change (FC) [12]: 1.4; fold change (FC) [13]: 1.2; fold change (FC) [14]: 3.7; IC50 [15]: 2.2 nM; EC50 [16]: 42 nM; fold change (FC) [17]: 1.7; Activity [18]: inactive; Activity [19]: inactive; IC50 [20]: 2 nM; Activity [21]: inactive; Activity [22]: inactive; Activity [23]: inactive; fold change (FC) [24]: 1

From ChEMBL document CHEMBL1255253, “The naphthyridinone GSK364735 is a novel, potent human immunodeficiency virus type 1 integrase inhibitor and antiretroviral” (Antimicrob Agents Chemother, 2008)
